Reference: PubChem BioAssay (NCI)
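Briefly, cells in 96-well plates were exposed to five compound concentrations for 48 h, and endpoints were estimated by linear interpolation. TGI: total growth inhibition.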 Where a SMILES comes first, the peptide text is derived from it. Bridges are numbered along the chain shown (N, C = ends). The star is where a group is joined. Cbz = O=C(OCc1ccccc1)*

Experiments:
Experiment in all cases: growth of human tumour cells (NCI), 48 h
[1] = system: BT-549 breast
[2] = system: KM12 colon
[3] = system: 786-0 renal
[4] = system: CCRF-CEM leukemia
[5] = system: NCI/ADR-RES ovarian
[6] = system: K-562 leukemia
[7] = system: SF-539 CNS
[8] = system: TK-10 renal
[9] = system: OVCAR-4 ovarian
[10] = system: NCI-H460 lung
[11] = system: NCI-H23 lung
[12] = system: SF-295 CNS
[13] = system: ACHN renal
[14] = system: SR leukemia
[15] = system: HL-60(TB) leukemia
[16] = system: MDA-MB-435
[17] = system: NCI-H226 lung
[18] = system: MDA-N
[19] = system: M14 melanoma

Compound	TGI [1] [µM]	TGI [2] [µM]	TGI [3] [µM]	TGI [4] [µM]	TGI [5] [µM]	TGI [6] [µM]	TGI [7] [µM]	TGI [8] [µM]	TGI [9] [µM]	TGI [10] [µM]	TGI [11] [µM]	TGI [12] [µM]	TGI [13] [µM]	TGI [14] [µM]	TGI [15] [µM]	TGI [16] [µM]	TGI [17] [µM]	TGI [18] [µM]	TGI [19] [µM]
Cc1nc2ccc(F)cc2c2c1CCS2	> 100	> 100	> 100	> 100	> 100	94.5	> 100	> 100	> 100	> 100	> 100	> 100	> 100	> 100	47.6	> 100			
COc1ccc2c(O)c(Oc3ccc(Cl)cc3)c(=O)oc2c1	> 100	> 100	> 100	> 100		> 100	> 100	> 100	> 100	> 100	> 100	> 100	> 100	> 100	> 100		> 100	> 100	> 100
CNC(=O)C1CCCCNC(=O)CCC(NC(=O)OCc2ccccc2)C(=O)N1 (stereo not drawn) (Cbz-Glu-Lys-NHMe; lactam 1-2; configuration not given here)		> 100	> 100	> 100	> 100	> 100	> 100	> 100	> 100	> 100	> 100	> 100	> 100		> 100	> 100	> 100	> 100	> 100
N#CC(C#N)=c1c(=O)c2c3ccccc3cc3cccc1c32	> 100	> 100	> 100	> 100	> 100				> 100	> 100	> 100		> 100		> 100	> 100	> 100	> 100	> 100
CC(C)(C)C(=O)/C=C(\OB(F)F)C(C)(C)C		> 100	> 100	> 100	> 100	> 100	> 100	> 100	> 100	> 100	> 100	> 100	> 100	> 100	> 100	> 100	> 100	> 100	> 100
NC(N)=N/N=C\c1c(-c2cccc([N+](=O)[O-])c2)nc2sccn12	4.06	3.66	> 100	> 100	> 100	> 100	54.9	4.53	3.78	78.7	32.1	5.86	5.68		> 100	5.16			5.93
CCOc1ccc(/C=C2\N=C(c3ccccc3)OC2=O)cc1	> 100	> 100		> 100	> 100	> 100	> 100	> 100	> 100	> 100	> 100	> 100	> 100	> 100	> 100	> 100	> 100		> 100
CCCCCCCCCCCCCCCCOCC(COP(=O)(O)OCC1OC(n2cc(CC)c(=O)[nH]c2=O)CC1O)OC(=O)CCCCCCCCCCCCCCC (centres undefined)		> 100	> 100	> 100	> 100	> 100	> 100	> 100	> 100		> 100	> 100	> 100	> 100	> 100	> 100	> 100		> 100
OCC(O)COCn1cc(Cn2ncc3c(SCc4ccccc4)ncnc32)nn1 (centres undefined)	> 100	> 100	> 100	> 100	> 100	> 100	> 100	> 100	> 100		> 100	> 100	> 100		> 100	> 100	> 100		> 100
COC(=NC(C)C)NC(C)C			> 100	> 100	> 100	> 100	> 100	> 100		> 100	> 100		> 100	> 100	> 100	> 100	> 100	> 100	> 100
CC(NCc1c(O)ccc2c(-c3ccccc3)cc(=O)oc12)C(=O)O (centres undefined)		> 100	> 100	> 100	> 100	> 100	> 100	> 100	> 100	> 100	> 100	> 100	> 100	> 100	> 100	> 100	> 100	> 100	> 100
COc1ccc(/C=C/C(=O)c2cc(OC)cc(OC)c2)cc1		2.23	11.2	10.1	9.02	> 100	7.93	23.9	18	14.4	8.53	7.23	17.7		9.73	3.45	31.6	5.33	6.83
COc1cc2nc(-c3cccs3)nc(Nc3cccc([N+](=O)[O-])c3)c2cc1OC	39.7	40.6	40.9	> 100	46.9	> 100	34	37	> 100	77.1	28.9	42.4	38.3	34.2	> 100	31.6	58.7		33.5
Cc1cn2cc(-c3cccs3)nc2s1	> 100	> 100	> 100	> 100		> 100	> 100	> 100	> 100	> 100	> 100	> 100	> 100	> 100	> 100	> 100	> 100	> 100	> 100
COc1cc([C@@H]2c3cc4c(cc3[C@H](OC3OC5COC(c6ccco6)OC5C(O)C3O)C3COC(=O)[C@@H]32)OCO4)cc(OC)c1OC (some centres undefined)	85.7	> 100	> 34.5		> 80.1		> 100	> 100	> 100		> 79.4	> 100	> 59.3		> 100	> 100	> 100		> 100
CC(C)OC(=O)NCCn1cc(-c2ccccc2)nn1	> 100	> 100	> 100	> 100	> 100	> 100	> 100	> 100	> 100	> 100	> 100	> 100	> 100	> 100	> 100	> 100	> 100		> 100
NC(N)=N/N=C/c1c(-c2ccccc2[N+](=O)[O-])nc2sccn12	> 100	46.9	35.3	55	> 100	33.8	37.6	57	> 100	39.7	86.5	50	> 100	35.1	40.4	35.1	39.1		31.2
COc1cc2c(cc1OS(C)(=O)=O)N=C[C@@H]1CCCN1C2=O		> 100	> 100	> 100			> 100	> 100	> 100	> 100	> 100	> 100	> 100	> 100	> 100	> 100	> 100		> 100
COCCN(C(=O)c1ccccc1)C1CCC2(SCCS2)c2[nH]c3ccccc3c21 (centres undefined)		> 100	> 100	> 100	> 100	> 100	> 100	> 100		> 100	> 100	> 100	> 100	> 100	55.2	69.6	> 100		
CC(C)[Si](OC12CCC(CC1O)CC2CO)(C(C)C)C(C)C (centres undefined)		25.3	22.3	31.6	28.3	> 100	38	27.5	23.7	25.2	25.4	24.6	27.2	38.5	6.73	31.7	33.6		28.4
CN1CCN(Cn2nc(COc3ccccc3Cl)n(/N=C/c3ccc(-c4ccc(Cl)cc4Cl)o3)c2=S)CC1		42.1	32.8	> 100	61.9	89.9	62.6	62.4	45.2	51.6	44.8	87.3		51.8	55.1	64.5	> 100	53.8	81.7
COc1ccc2c(-c3csc(-c4c[nH]c5ccc(Br)cc45)n3)c[nH]c2c1	> 100	> 100	> 100	> 100	> 100	> 100		> 100	> 100	> 100	> 100	> 100	> 100			67.9	> 100	30.8	> 100
COCN1C(=O)[C@@H]2CCCN2C(=O)c2cc(OC)c(Cc3ccccc3)cc21	> 100	> 100	> 100		> 100		> 100	> 100	> 100		> 100	> 100	> 100			> 100		> 100	> 100
NC(Cc1ccc(CP(=O)(O)O)cc1)C(=O)O (centres undefined)		> 100		> 100	> 100	> 100	> 100	> 100	> 100	> 100	> 100	> 100	> 100	> 100	> 100	> 100		> 100	> 100
COc1cc(CN=c2nc(N(C)C)ss2)cc(OC)c1OC		> 10	> 5.44	1.56	> 10	5.67	> 10	> 10	> 10	> 10	> 10	> 10	> 10	3.38	4.47	> 10	> 10	> 10	> 10
C=C1CC[C@](C)(O)[C@@]2(C)CC[C@H]3C(=C(C)C)C(=O)C[C@]3(C)C[C@H]12	> 50	> 50	> 50	30.9	> 50	16.8	> 50	> 50	> 50		> 50	> 50	> 50	41.1	18.9	> 50	> 50		> 50
Cc1nnc2n1N=C(c1cc(F)c(Cl)cc1Cl)/C(=C/c1ccc(-c3ccc([N+](=O)[O-])cc3)o1)S2	> 100	> 100	> 100	> 100	> 100	> 100			> 100	> 100	> 100	> 100	> 100	> 100	> 100	> 100			> 100
CC(=O)c1ccc(Br)cc1NC1=CC(=O)c2ncccc2C1=O		11.7	15.3	32.2	14.9	10.1	6.96	31.4	11.2		13	14.3	12.5	5.97	3.61	3.06	15.5	3.62	10.6
